Measurements from US9943607B2, “Beta-glucan compounds, compositions, and methods” (Biothera, Inc., priority 2011, dated 2018).
Values belong to the substance of their own block, whether it stands above or below them.

How the values were obtained:
[1] = tested on: human B cells in whole blood; assay: β-glucan binding to B cells in whole blood (BfD IV staining, flow cytometry)
Procedure: Blood was collected from a healthy donor with 10 Units/mL Heparin. 100 μL of blood was mixed with IMPRIME PGG concentrations and incubated at 37° C. for 60 minutes. Cells were washed with 2 mL of PBS and supernatant removed by aspiration. Cells were then stained with 20 μL of BfD IV (U.S. Pat. No. 6,294,321) for 30 minutes before washing again with PBS. 10 μL of goat anti-mouse IgM FITC added to stain for BfD IV positive cells, while 10 μL of anti-CD19 APC was added to stain the B cell population for FACS analysis. Cells were incubated for 30 minutes at room temperature before washing with PBS. The red cells in the blood were lysed by the addition of 2 mL of BD Lyse and fixed with 2% paraformadehyde before analysis on an LSR II flow cytometer. Analysis was performed using FlowJo software.

[2] = tested on: human B cells in enriched PBMC; assay: β-glucan binding to B cells in enriched PBMC (BfD IV staining, flow cytometry); settings: various hexose concentrations, 37° C., two hours
Procedure: Enriched PBMC were resuspended at 1×10^6 cells/mL in RPMI 1640 supplemented with 10% serum. The β-glucans (IMPRIME PGG (B) and laminarin (C)) at various hexose concentration were added to the cells and incubated in a 37° C., 5% C02 humidified incubator for two hours. After incubation, cells were washed twice with FACS buffer (HBSS supplemented with 1% FBS and 0.1% sodium azide) to remove any unbound β-glucan, and subsequently treated with Fc block. After the Fc block step, cells were stained with the monoclonal antibody BfD IV (U.S. Pat. No. 6,294,321) for 30 minutes at 4° C. and washed twice with cold FACS buffer. Cells were then incubated with FITC-conjugated F(ab′)2 goat anti-mouse IgM for 30 minutes at 4° C. and washed once with cold FACS buffer before fixing with 1% paraformaldehyde. Events were collected on a LSRII flow cytometer and analysis was performed using FlowJo software. Results are shown in FIG. 2B (IMPRIME PGG) and FIG. 2C (laminarin).

[3] = tested on: Raji cells; assay: Binding of IMPRIME PGG to B cell tumor line Raji; design: species or system human; settings: 50 mcg/mL and 200 mcg/mL
[4] = target: T1, complement receptor 2, (CR2; aka CD21) on B cells (Homo sapiens, UniProt P20023); assay: β-glucan binding and CR2 blocking with anti-CR2 antibody; settings: IMPRIME PGG at 100 μg/mL; whole blood or PBMC; anti-CR2 clone 1048 at 10 μg/mL
T1 construct: endogenous in cells; host or cells: B cells in whole blood or PBMC
T1 sequence (P20023 21-1033): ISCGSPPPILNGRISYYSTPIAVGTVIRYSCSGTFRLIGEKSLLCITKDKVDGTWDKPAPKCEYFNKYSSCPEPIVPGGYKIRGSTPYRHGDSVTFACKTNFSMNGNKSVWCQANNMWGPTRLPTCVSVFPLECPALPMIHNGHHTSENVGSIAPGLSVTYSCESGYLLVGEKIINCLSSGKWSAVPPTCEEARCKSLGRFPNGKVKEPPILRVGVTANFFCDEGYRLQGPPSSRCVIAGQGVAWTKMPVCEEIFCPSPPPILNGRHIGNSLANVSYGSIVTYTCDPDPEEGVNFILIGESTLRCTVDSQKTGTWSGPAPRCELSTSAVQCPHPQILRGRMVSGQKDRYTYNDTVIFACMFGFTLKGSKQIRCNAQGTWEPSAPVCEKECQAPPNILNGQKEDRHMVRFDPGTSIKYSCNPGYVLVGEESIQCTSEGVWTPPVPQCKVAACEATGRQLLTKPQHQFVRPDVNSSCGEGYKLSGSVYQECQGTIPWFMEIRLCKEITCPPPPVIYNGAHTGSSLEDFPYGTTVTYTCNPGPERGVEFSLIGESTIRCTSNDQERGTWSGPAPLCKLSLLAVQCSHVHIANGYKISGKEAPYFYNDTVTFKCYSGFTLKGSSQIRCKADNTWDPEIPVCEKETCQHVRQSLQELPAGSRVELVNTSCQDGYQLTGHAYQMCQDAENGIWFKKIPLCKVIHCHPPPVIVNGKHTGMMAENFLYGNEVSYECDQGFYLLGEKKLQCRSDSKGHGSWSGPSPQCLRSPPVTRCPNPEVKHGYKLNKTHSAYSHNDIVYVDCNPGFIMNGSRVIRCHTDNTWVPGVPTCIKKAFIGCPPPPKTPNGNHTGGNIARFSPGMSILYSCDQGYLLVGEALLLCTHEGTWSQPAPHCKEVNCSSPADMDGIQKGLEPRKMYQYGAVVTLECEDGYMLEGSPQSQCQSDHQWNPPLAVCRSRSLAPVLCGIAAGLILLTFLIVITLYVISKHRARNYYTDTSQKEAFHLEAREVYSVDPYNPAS
Procedure: Whole blood or PBMC were pre-incubated with specific receptor blocking antibodies or the relevant isotype controls at 4° C. for 30-45 minutes before addition of IMPRIME PGG at 100 μg/mL. Binding to B cells was performed as described in Example 1. Clone 1048, the mouse mAb against CR2, and mouse IgG1 isotype control was used at 10 μg/mL/1×10^6 cells. Results are shown in FIG. 3B (Whole Blood) and FIG. 3C (PBMC).

[5] = tested on: Daudi cells; assay: Binding of IMPRIME PGG to B cell tumor line Daudi; design: species or system human; settings: 50 mcg/mL and 200 mcg/mL
[6] = tested on: B cells; assay: Calcium flux in PBMC B cells treated in vitro with soluble β-glucan, then stimulated with anti-IgM; type: cell-based, human; settings: 100 μg/mL, 37° C., one hour; anti-IgM 2.6 μg/mL
Procedure: FURA RED and FLUO-4 (each from Invitrogen, Life Technologies Corp., Carlsbad, Calif.) calcium stain was added to serum free RPMI medium to a final concentration of 3 μM for each dye, then incubated at 37° C. for 30 minutes. PBMCs mixed 1:1 with media containing 10% FCS and incubated an additional 10 minutes. The cells were washed 2× with media containing 10% FCS. Cells were resuspended in RPMI with 10% human serum.
The resuspended cells were incubated with or without the addition of 100 μg/mL IMPRIME PGG at 37° C. for one hour. The monoclonal antibody CD20 APC (BioLegend, Inc., San Diego, Calif.) was added to each tube for 10 minute incubation before washing 2× with RPMI containing 10% FCS. Cells were resuspended in RPMI with 10% FCS for FACS analysis. Calcium flux was induced by stimulating the B cells with goat anti-human IgM at 2.6 μg/mL.

[7] = tested on: CD19+ B cells; assay: Targeted binding of β-glucan and β-glucan-ERBITUX conjugate to CD19+ B cells in whole blood; design: species or system human; settings: 10 μg/mL, 30 minutes at 37° C.
Procedure: Cells were washed twice with PBS before staining with the β-glucan specific antibody BfD IV (U.S. Pat. No. 6,294,321). Cells were washed again and stained with an antibodies specific for human IgG to detect ERBITUX and CD19 to label B cells. Cells were analyzed on and LSRII flow cytometer and the groups were compared by gating on CD19^+ B cells.

[8] = tested on: B cells; assay: Calcium flux in B cells of subjects treated in vivo with particulate oral β-glucan, then stimulated with anti-IgM; design: species or system human; settings: 100 mg/day to 1000 mg/day, anti-IgM 10, 2 or 0.4 μg/mL
Procedure: Blood was drawn from untreated donors (n=15) or donors (n=12) treated with particulate oral β-glucan (U.S. Pat. No. 7,981,447) at dosages ranging from 100 mg/day to 1000 mg/day. PBMCs were isolated from blood using a ficoll gradient.
The isolated PBMCs were treated with 6 μM FURA RED and 3 μM FLUO-4 (each from Invitrogen, Life Technologies Corp., Carlsbad, Calif.) in PBS for 45 minutes at 37° C. The cells were washed 2× with PBS and stained with anti-CD20 APC (BioLegend, Inc., San Diego, Calif.) for 20 minutes at room temperature. Cells were washed 2× and resuspended in RPMI containing 2.5% FCS for FACS analysis. Calcium flux was induced by stimulating the B cells with goat anti-human IgM at 10 μg/mL, 2 μg/mL, or 0.4 μg/mL.

Substance: BT-1110: bovine serum albumin (BSA) conjugated to IMPRIME PGG
- MFI of BfD IV staining on B cells compared to unconjugated IMPRIME PGG ([1]; 50 μg/mL, whole blood): higher

Substance: Laminarin [reference compound]
- binding to B cells in enriched PBMC (MFI of BfD IV staining) [2]: bind directly to human B cells

- binding to CR2 on B cells (blocking by anti-CR2 antibody) [4]: binds to complement receptor 2
Substance: β(1,6)-[poly-1,3)-D-glucopyranosyl]-poly-b(1,3)-D-glucopyranose [IMPRIME PGG]
- binding to Raji B cell tumor line [3]: bound to these tumor lines in a concentration-dependent manner
- binding to Daudi B cell tumor line [5]: bound to these tumor lines in a concentration-dependent manner
- calcium flux of B cells after goat anti-human IgM stimulation [6]: larger and more sustained calcium flux
- β-glucan detected on CD19+ B cells with anti-β-glucan antibody BfD IV [7]: positive for β-glucan
- binding to B cells in whole blood (MFI of BfD IV staining) ([1]; various concentrations, 37° C., 60 minutes): bind directly to human B cells
- binding to B cells in enriched PBMC (MFI of BfD IV staining) [2]: bind directly to human B cells

Substance: β(1,6)-[poly-1,3)-D-glucopyranosyl]-poly-b(1,3)-D-glucopyranose [particulate form of β-glucan]
- calcium flux of B cells after goat anti-human IgM stimulation, treated vs untreated subjects [8]: decrease calcium flux
